Consider five molecules from patent publication US10065990B2, “Cyclic peptide compound, and preparation method, pharmaceutical composition and use thereof” (HANGZHOU GUANYU BIO-MEDICAL CO., LTD, priority 2013, dated 2018).

Assay [1] deals with T1, HDAC7 (Homo sapiens, UniProt Q8WUI4).
T1 sequence (Q8WUI4 1-952): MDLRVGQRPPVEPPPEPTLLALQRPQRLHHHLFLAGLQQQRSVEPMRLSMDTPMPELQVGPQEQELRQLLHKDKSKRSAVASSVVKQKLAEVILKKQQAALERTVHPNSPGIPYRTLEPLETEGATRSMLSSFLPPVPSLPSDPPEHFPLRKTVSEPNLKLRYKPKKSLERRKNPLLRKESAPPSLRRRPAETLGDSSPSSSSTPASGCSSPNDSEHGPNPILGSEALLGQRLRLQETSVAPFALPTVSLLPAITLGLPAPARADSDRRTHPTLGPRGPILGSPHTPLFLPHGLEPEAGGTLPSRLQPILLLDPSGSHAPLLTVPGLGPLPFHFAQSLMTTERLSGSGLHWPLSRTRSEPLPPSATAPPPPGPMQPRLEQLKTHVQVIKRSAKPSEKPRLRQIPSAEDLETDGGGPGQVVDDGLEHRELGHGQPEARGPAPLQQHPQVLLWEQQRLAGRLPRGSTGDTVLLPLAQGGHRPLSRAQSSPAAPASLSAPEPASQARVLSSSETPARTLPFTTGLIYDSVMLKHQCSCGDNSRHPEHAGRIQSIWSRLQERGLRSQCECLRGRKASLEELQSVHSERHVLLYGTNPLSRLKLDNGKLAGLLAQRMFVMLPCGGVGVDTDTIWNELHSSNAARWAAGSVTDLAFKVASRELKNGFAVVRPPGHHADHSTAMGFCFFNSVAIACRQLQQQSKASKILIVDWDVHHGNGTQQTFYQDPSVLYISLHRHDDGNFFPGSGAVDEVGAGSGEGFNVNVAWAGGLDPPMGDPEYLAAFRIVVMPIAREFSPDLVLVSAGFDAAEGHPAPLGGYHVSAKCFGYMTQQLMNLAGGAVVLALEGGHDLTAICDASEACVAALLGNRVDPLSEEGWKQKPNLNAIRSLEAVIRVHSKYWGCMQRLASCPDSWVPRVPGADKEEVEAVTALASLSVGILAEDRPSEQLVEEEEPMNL
Briefly: HDAC biochemical activity measurement (fluorescent substrate deacetylation).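 Further: fluorogenic deacetylation assay using acetyl-lysine substrate at 20 µM, enzyme and compound incubated 30 min at 37 °C, then developer added, fluorescence read at 360/460 nm.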 The following applies: HDAC7; 37° C. 30 minutes.

Assay [2] deals with H1975 (non-small cell lung adenocarcinoma). Briefly: MTT cancer cell growth inhibition. The following applies: Homo sapiens, NCI-H1975, 72 h, MTT, 72 hours incubation, H1975 cells; read-out: GI50 H1975. The assay is classed as cell-based. Put shortly:
(§1)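 72 h exposure, final drug 10^−5–10^−10 M, triplicate wells; 1500 cells/well plated the day before; medium DMEM or 1640 + 10% FBS; 37° C./5% CO2. MTT (5 mg/ml stock) 4 h, DMSO solubilisation, A570 → % viability → GI50.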

The subject of assay [3] is KBM-5 (human chronic myelogenous leukemia). Briefly: MTT cancer cell growth inhibition. It is filed as cell-based. The following applies: Homo sapiens, KBM5, 72 h, MTT, 72 hours incubation, KBM-5 cells; read-out: GI50 KBM-5. In a few lines:
as §1

Assay [4] has as its system lncap (prostate cancer cells). Put plainly: MTT cancer cell growth inhibition. It is filed as cell-based. Particulars: Homo sapiens, LNCaP, 72 h, MTT, 72 hours incubation, read-out: GI50 lnca. In a few lines: as §1
Assay [5] relates to HCC827 (human non-small cell lung cancer cells). Briefly: MTT cancer cell growth inhibition. It is filed as cell-based. Particulars: Homo sapiens, HCC827, 72 h, MTT, 72 hours incubation, HCC827 cells; read-out: GI50 HCC827. Put shortly:
as §1

Assay [6] deals with HT1080 (human fibrosarcoma cells). Put plainly: MTT cancer cell growth inhibition. The assay is classed as cell-based. Particulars: Homo sapiens, HT-1080, 72 h, MTT, 72 hours incubation, read-out: GI50 HT1. In a few lines:
as §1

Assay [7] concerns Bel-7402 (human hepatoma cells). Briefly: MTT cancer cell growth inhibition. The assay is classed as cell-based. The following applies: Homo sapiens, Bel-7402, 72 h, MTT, 72 hours incubation, Bel-7402 cells; read-out: GI50 Bel-7402. In a few lines:
as §1

Assay [8] has as its system Hela (human cervical cancer cells). Put plainly: MTT cancer cell growth inhibition. The assay is classed as cell-based. Particulars: Homo sapiens, HeLa, 72 h, MTT, 72 hours incubation, read-out: GI50 Hela. Put shortly:
as §1

For assay [9], the system named is SGC-7901 (human gastric cancer cells). Put plainly: MTT cancer cell growth inhibition. The assay is classed as cell-based. The following applies: Homo sapiens, SGC-7901, 72 h, MTT, 72 hours incubation, SGC-7901 cells; read-out: GI50 SGC-7901. In a few lines:
as §1

Assay [10] relates to A549 (human lung cancer cells). Briefly: MTT cancer cell growth inhibition. It is filed as cell-based. The following applies: Homo sapiens, A549, 72 h, MTT, 72 hours incubation, read-out: GI50 A54. Put shortly:
as §1

Assay [11] has as its system U937 (human leukemia cells). Put plainly: MTT cancer cell growth inhibition. The assay is classed as cell-based. The following applies: Homo sapiens, U-937, 72 h, MTT, 72 hours incubation, read-out: GI50 U93. Put shortly: as §1
For assay [12], the system named is KBM5-T315I (human chronic myelogenous leukemia). Briefly: MTT cancer cell growth inhibition. The assay is classed as cell-based. The following applies: Homo sapiens, 72 h, MTT, 72 hours incubation, KBM5-T315I cells; read-out: GI50 KBM5-T315I. In a few lines:
as §1

Assay [13] concerns MDA-MB-231 (breast cancer cells). Put plainly: MTT cancer cell growth inhibition. The assay is classed as cell-based. The following applies: Homo sapiens, MDA-MB-231, 72 h, read-out: GI50 MDA-MB-231, MTT, 72 hours incubation, MDA-MB-231 cells. In a few lines:
as §1

Assay [14] has as its system MOLT-4 (human acute lymphoblastic leukemia cells). Briefly: MTT cancer cell growth inhibition. The assay is classed as cell-based. The following applies: Homo sapiens, MOLT-4, 72 h, MTT, 72 hours incubation, read-out: GI50 Mol. In a few lines:
as §1

Assay [15] concerns DU145 (human prostate cancer cells). Briefly: MTT cancer cell growth inhibition. It is filed as cell-based. The following applies: Homo sapiens, DU-145, 72 h, MTT, 72 hours incubation, read-out: GI50 Du1. Put shortly: as §1
Assay [16] deals with K562 (human leukemia cells). Briefly: MTT cancer cell growth inhibition. The assay is classed as cell-based. Particulars: Homo sapiens, K562, 72 h, MTT, 72 hours incubation, K562 cells; read-out: GI50 K562. In a few lines: as §1
Assay [17] concerns N-87 (human gastric cancer cells). Put plainly: MTT cancer cell growth inhibition. The assay is classed as cell-based. Particulars: Homo sapiens, 72 h, MTT, 72 hours incubation, N-87 cells; read-out: GI50 N-87. In a few lines: as §1
In assay [18] the test system is MCF-7 (human breast cancer cells). Briefly: MTT cancer cell growth inhibition. The assay is classed as cell-based. Particulars: Homo sapiens, MCF7, 72 h, 72 hours incubation, read-out: GI50 MCF. Put shortly: as §1
Assay [19] deals with Huh-7 (human hepatoma cells). Put plainly: MTT cancer cell growth inhibition. The following applies: Homo sapiens, Huh-7, 72 h, MTT, 72 hours incubation, Huh-7 cells; read-out: GI50 Huh-7. The assay is classed as cell-based. In a few lines: as §1
For assay [20], the system named is PANC-1 (Pac-1, human pancreatic cancer cells). Briefly: MTT cancer cell growth inhibition. It is filed as cell-based. Particulars: Homo sapiens, PANC-1, 72 h, MTT, 72 hours incubation, read-out: GI50 PAN. Put shortly: as §1
In assay [21] the test system is BGC-823 (human gastric cancer cells). Briefly: MTT cancer cell growth inhibition. Particulars: Homo sapiens, BGC-823, 72 h, MTT, 72 hours incubation, read-out: GI50 BG. The assay is classed as cell-based. In a few lines:
as §1

Where two headings read alike, the source gives them in different places.

As to `C/C=C1\NC(=O)c2nccc(n2)CNC(=O)C[C@@H](/C=C/CCS)OC(=O)[C@H](C(C)C)NC1=O` [Compound 143], the “IC50 HDAC7” value in assay [1] was “no activity”. Moreover, the GI50 in [2] was 49 nM; in assay [3] it was 36 nM; in assay [4] it was 60 nM; in [5] it was 73 nM; in assay [6], 90 nM; in assay [7], 42 nM. In addition, the GI50 in assay [8] is 60 nM; in assay [9], 63 nM; in [10], 80 nM; in [11], 80 nM; in assay [12], 34 nM; in assay [13] it was 25 nM. Also, the GI50 in [14] stood at 90 nM; in assay [15], 70 nM; in assay [16], 53 nM; in assay [17], 32 nM; in assay [18] it was 70 nM; in assay [19], 75 nM. Besides, the GI50 in assay [20] and in assay [21] was 80 nM in each case.

With `C/C=C1\NC(=O)c2ncc(F)c(n2)CNC(=O)C[C@@H](/C=C/CCSC(C)=O)OC(=O)[C@H](C)NC1=O` [Compound 99], the “IC50 HDAC7” value in assay [1] is on record as “no activity”. Moreover, the GI50 was found to be 58 nM in assay [2]; 19 nM in assay [3]; 20 nM in [4]; 88 nM in assay [5]; 70 nM in assay [6]; 16 nM in [7]. For the same molecule, the GI50 in assay [8] stood at 60 nM; in [9] it was 69 nM; in [10], 60 nM; in assay [11], 60 nM; in [12] it was 22 nM; in [13], 24 nM. Besides, the GI50 in assay [14] stood at 20 nM; in assay [15] it was 40 nM; in assay [16], 42 nM; in [17], 31 nM; in assay [18] it was 10 nM; in assay [19], 31 nM. The GI50 in [20] stood at 70 nM; in assay [21], 60 nM.

`C=C1NC(=O)c2cccc(n2)CNC(=O)C[C@@H](/C=C/CCS)OC(=O)[C@H](C(C)C)NC1=O` [Compound 131]: in [1], the “IC50 HDAC7” value is on record as “no activity”. The GI50 in assay [2] amounted to 16 nM; in assay [3], 63 nM; in assay [4], 80 nM; in assay [5], 59 nM; in assay [6], 80 nM; in assay [7] it was 43 nM. The GI50 in assay [8] came to 80 nM; in assay [9] it was 31 nM; in [10], 50 nM; in [11], 50 nM; in assay [12], 45 nM; in assay [13], 46 nM. Further, the 50% growth inhibitory concentration (GI50) is 80 nM in [14]; 60 nM in assay [15]; 45 nM in [16]; 95 nM in assay [17]; 60 nM in assay [18]; 23 nM in assay [19]. For the same molecule, the GI50 in [20] and in [21] was 40 nM each time.

`C=C1NC(=O)c2ccc(F)c(n2)CNC(=O)C[C@@H](/C=C/CCS)OC(=O)[C@H](C)NC1=O` [Compound 142]: the “IC50 HDAC7” value in assay [1] is given as “no activity”. The GI50 came to 59 nM in assay [2]; 73 nM in assay [3]; 110 nM in assay [4]; 66 nM in assay [5]; 70 nM in [6]; 73 nM in assay [7]. Further, the GI50 in assay [8] was determined as 50 nM; in [9], 53 nM; in assay [10], 130 nM; in assay [11], 50 nM; in [12], 35 nM; in assay [13] it was 51 nM. Further, the GI50 in [14] came to 20 nM; in assay [15], 50 nM; in assay [16], 84 nM; in assay [17], 42 nM; in assay [18] it was 50 nM; in assay [19], 38 nM. In addition, the GI50 in assay [20] was found to be 130 nM; in assay [21], 70 nM.

Take `C/C=C1\NC(=O)c2nc(ccc2SC)CNC(=O)C[C@@H](/C=C/CCSC(=O)CCCC)OC(=O)[C@H](C(C)C)NC1=O` [Compound 156]: in [1], the “IC50 HDAC7” value is listed as “no activity”. Further, the GI50 in assay [2] was found to be 18 nM; in [3], 17 nM; in assay [4] (lncap cells), 30 nM; in [5], 43 nM; in assay [6] (HT1080 cells), 80 nM; in [7] it was 23 nM. Also, the concentration for 50% growth inhibition (GI50) in [8] (Hela cells) was 30 nM; in assay [9], 45 nM; in assay [10] (A549 cells), 30 nM; in assay [11] (U937 cells) it was 20 nM; in [12], 33 nM; in [13] it was 63 nM. Besides, the GI50 in [14] (MOLT-4 cells) is 10 nM; in assay [15] (DU145 cells), 80 nM; in assay [16], 31 nM; in [17] it was 65 nM; in [18] (MCF-7 cells) it was 20 nM; in assay [19], 35 nM. Further, the GI50 in assay [20] (PANC-1 cells) and in assay [21] (BGC-823 cells) was 50 nM each time.
